Consider 22 compounds from ChEMBL document CHEMBL4308907, “Pyrrolidinone-bearing methylated and halogenated benzenesulfonamides as inhibitors of carbonic anhydrases” (Bioorg Med Chem, 2019).

The structures appear in SMILES notation.

Assay [1] addresses Carbonic anhydrase 5B, mitochondrial (Homo sapiens, UniProt Q9Y2D0). As to the kind of experiment: Binding affinity to recombinant full length N-terminal His6x-tagged human CA5B expressed in Escherichia coli Rosetta 2 (DE3) by DSF-based fluorescence thermal shift assay.
The next assay concerns the target Carbonic anhydrase 7 (Homo sapiens, UniProt P43166). Nature of the assay: Binding affinity to recombinant human CA7 by DSF-based fluorescence thermal shift assay.
A further assay deals with Carbonic anhydrase 6 (Homo sapiens, UniProt P23280). Nature of the assay: Binding affinity to recombinant human CA6 by DSF-based fluorescence thermal shift assay.
For another assay, the target named is Carbonic anhydrase 2 (Homo sapiens, UniProt P00918). Nature of the assay: Binding affinity to recombinant human CA2 by DSF-based fluorescence thermal shift assay.
The next assay concerns the target Carbonic anhydrase 3 (Homo sapiens, UniProt P07451). As to the kind of experiment: Binding affinity to recombinant N-terminal His6x-tagged human CA3 (4 to 260 residues) expressed in Escherichia coli BL21(DE3) by DSF-based fluorescence thermal shift assay.
A further assay has as its target Carbonic anhydrase 9 (Homo sapiens, UniProt Q16790). As to the kind of experiment: Binding affinity to recombinant human CA9 by DSF-based fluorescence thermal shift assay.
A further assay has as its target Carbonic anhydrase 12 (Homo sapiens, UniProt O43570). Nature of the assay: Binding affinity to recombinant human CA12 by DSF-based fluorescence thermal shift assay.
Another assay has as its target Carbonic anhydrase 4 (Homo sapiens, UniProt P22748). As to the kind of experiment: Binding affinity to recombinant human CA4 by DSF-based fluorescence thermal shift assay.
The target of another assay is Carbonic anhydrase 13 (Homo sapiens, UniProt Q8N1Q1). As to the kind of experiment: Binding affinity to recombinant human CA13 by DSF-based fluorescence thermal shift assay.
Another assay concerns the target Carbonic anhydrase 1 (Homo sapiens, UniProt P00915). As to the kind of experiment: Binding affinity to recombinant human CA1 by DSF-based fluorescence thermal shift assay.

Sequence of Carbonic anhydrase 3 (P07451 whole entry, the tested form may be a part): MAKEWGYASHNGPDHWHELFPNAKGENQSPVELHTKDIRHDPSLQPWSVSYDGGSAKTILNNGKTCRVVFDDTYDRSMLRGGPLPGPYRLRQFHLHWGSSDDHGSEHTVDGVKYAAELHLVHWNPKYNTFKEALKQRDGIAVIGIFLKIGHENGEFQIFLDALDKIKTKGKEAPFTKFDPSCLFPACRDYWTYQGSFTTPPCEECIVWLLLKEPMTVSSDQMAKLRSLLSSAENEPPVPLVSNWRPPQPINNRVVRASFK
Sequence of Carbonic anhydrase 12 (O43570 whole entry): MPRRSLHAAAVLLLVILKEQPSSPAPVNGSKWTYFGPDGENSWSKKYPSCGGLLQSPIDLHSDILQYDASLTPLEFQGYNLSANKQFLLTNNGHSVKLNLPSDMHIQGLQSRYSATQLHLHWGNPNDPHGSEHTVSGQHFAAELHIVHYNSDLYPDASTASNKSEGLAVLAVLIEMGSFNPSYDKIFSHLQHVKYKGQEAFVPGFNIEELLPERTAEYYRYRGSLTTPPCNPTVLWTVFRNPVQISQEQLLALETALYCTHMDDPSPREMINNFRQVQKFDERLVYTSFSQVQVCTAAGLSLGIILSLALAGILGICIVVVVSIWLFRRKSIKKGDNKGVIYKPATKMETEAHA
Sequence of Carbonic anhydrase 13 (Q8N1Q1 whole entry): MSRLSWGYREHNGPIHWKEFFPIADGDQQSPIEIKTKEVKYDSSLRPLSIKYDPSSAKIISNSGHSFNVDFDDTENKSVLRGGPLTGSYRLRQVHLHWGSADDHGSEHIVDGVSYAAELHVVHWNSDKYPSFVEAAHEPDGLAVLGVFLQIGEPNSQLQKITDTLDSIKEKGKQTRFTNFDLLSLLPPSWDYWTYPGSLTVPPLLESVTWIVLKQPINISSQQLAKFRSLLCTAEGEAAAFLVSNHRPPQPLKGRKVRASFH
Sequence of Carbonic anhydrase 6 (P23280 whole entry): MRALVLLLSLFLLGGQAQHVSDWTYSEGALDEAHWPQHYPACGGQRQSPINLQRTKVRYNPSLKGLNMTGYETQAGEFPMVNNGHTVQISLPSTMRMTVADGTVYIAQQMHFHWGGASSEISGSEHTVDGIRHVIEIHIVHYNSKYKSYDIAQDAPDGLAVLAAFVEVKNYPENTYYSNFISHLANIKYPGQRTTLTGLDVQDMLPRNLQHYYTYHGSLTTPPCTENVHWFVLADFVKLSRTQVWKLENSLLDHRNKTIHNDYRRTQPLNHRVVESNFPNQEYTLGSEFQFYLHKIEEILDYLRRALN
Sequence of Carbonic anhydrase 7 (P43166 whole entry): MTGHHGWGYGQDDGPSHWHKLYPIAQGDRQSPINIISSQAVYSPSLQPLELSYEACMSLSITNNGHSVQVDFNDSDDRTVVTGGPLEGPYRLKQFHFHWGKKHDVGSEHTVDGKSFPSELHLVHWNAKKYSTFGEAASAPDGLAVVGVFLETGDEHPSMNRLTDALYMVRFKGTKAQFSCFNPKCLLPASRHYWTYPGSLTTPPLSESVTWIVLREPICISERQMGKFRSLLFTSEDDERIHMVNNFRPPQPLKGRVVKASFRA
Sequence of Carbonic anhydrase 1 (P00915 whole entry): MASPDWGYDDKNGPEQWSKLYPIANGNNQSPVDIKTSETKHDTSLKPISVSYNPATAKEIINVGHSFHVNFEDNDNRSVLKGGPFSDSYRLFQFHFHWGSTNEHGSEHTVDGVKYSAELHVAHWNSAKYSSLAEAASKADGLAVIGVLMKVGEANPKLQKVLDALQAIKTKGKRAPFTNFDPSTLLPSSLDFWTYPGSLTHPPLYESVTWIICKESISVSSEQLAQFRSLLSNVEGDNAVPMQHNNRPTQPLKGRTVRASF
Sequence of Carbonic anhydrase 4 (P22748 whole entry): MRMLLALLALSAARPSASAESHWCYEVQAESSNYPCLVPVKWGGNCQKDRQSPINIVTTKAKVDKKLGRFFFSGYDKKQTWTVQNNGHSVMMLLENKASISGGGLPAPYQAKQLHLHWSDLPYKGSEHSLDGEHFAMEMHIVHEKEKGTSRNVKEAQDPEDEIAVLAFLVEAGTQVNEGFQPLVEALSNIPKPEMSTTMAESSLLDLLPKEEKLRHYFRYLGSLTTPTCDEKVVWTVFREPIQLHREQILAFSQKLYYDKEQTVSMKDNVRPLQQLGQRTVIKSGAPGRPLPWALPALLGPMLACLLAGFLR
Sequence of Carbonic anhydrase 5B, mitochondrial (Q9Y2D0 whole entry): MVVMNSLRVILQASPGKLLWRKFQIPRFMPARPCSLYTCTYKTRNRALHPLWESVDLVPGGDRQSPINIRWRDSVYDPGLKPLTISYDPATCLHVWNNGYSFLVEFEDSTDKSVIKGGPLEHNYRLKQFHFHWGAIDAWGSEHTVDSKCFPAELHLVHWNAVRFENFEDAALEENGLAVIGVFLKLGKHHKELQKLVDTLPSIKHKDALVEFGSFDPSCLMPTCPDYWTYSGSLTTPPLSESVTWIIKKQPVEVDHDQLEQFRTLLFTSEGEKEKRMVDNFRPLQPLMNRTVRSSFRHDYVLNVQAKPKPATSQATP

Take `NS(=O)(=O)c1ccc(NC(=O)C2CC(=O)N(c3ccc(Br)cc3)C2)cc1` (stereo not given): the Kd in assay [1] was 3800 nM; on Carbonic anhydrase 7, 1500 nM; on Carbonic anhydrase 6, 17000 nM; at Carbonic anhydrase 2, 640 nM; at Carbonic anhydrase 3, at least 200000 nM; at Carbonic anhydrase 9 it was 430 nM. The Kd on Carbonic anhydrase 12 stood at 39000 nM; at Carbonic anhydrase 4 it was 5600 nM; on Carbonic anhydrase 13 it was 3100 nM; at Carbonic anhydrase 1, 3300 nM.

With `Cc1cc(N2CC(C(=O)NNC(=S)Nc3ccccc3)CC2=O)cc(C)c1S(N)(=O)=O` (stereo not given), the Kd in assay [1] is 770 nM; on Carbonic anhydrase 7, 6500 nM; on Carbonic anhydrase 6, at least 200000 nM; on Carbonic anhydrase 2, 1100 nM; at Carbonic anhydrase 3, at least 200000 nM; on Carbonic anhydrase 9, 1400 nM. Also, the Kd at Carbonic anhydrase 12 is 5000 nM; on Carbonic anhydrase 4, 6900 nM; at Carbonic anhydrase 13, 1000 nM; at Carbonic anhydrase 1, 910 nM.

As to `Cc1cc(N2CC(c3n[nH]c(=S)n3-c3ccccc3)CC2=O)c(Cl)c(C)c1S(N)(=O)=O` (stereo not given), the Kd was 40 nM in [1]; 8.7 nM at Carbonic anhydrase 7; 3100 nM at Carbonic anhydrase 6; 33 nM at Carbonic anhydrase 2; at least 200000 nM at Carbonic anhydrase 3; 89 nM on Carbonic anhydrase 9. The Kd stood at 500 nM at Carbonic anhydrase 12, 17 nM at Carbonic anhydrase 13 and 440 nM on Carbonic anhydrase 1.

For `Cc1c(Br)c(N2CC(C(=O)O)CC2=O)c(Br)c(C)c1S(N)(=O)=O` (stereo not given), the Kd (in assay [1]; at Carbonic anhydrase 7; on Carbonic anhydrase 6; at Carbonic anhydrase 2; on Carbonic anhydrase 3; at Carbonic anhydrase 9) was at least 200000 nM in each case. In addition, the Kd at Carbonic anhydrase 12, on Carbonic anhydrase 4, at Carbonic anhydrase 13 and on Carbonic anhydrase 1 was at least 200000 nM throughout.

`NS(=O)(=O)c1ccc(NC(=O)C2CC(=O)N(c3ccccc3)C2)cc1` (stereo not given): the Kd in assay [1] was 550 nM; on Carbonic anhydrase 7 it was 110 nM; at Carbonic anhydrase 6, 3600 nM; on Carbonic anhydrase 2, 88 nM; on Carbonic anhydrase 3, at least 200000 nM; on Carbonic anhydrase 9, 53 nM. Besides, the Kd on Carbonic anhydrase 12 was determined as 5600 nM; on Carbonic anhydrase 4, 850 nM; on Carbonic anhydrase 13, 660 nM; on Carbonic anhydrase 1, 260 nM.

For `Cc1cc(N2CC(c3n[nH]c(=S)n3-c3ccccc3)CC2=O)cc(C)c1S(N)(=O)=O` (stereo not given), the Kd in assay [1] is 770 nM; on Carbonic anhydrase 7, 5400 nM; on Carbonic anhydrase 6, 41000 nM; on Carbonic anhydrase 2, 2000 nM; on Carbonic anhydrase 3, at least 200000 nM; on Carbonic anhydrase 9 it was 1400 nM. Also, the Kd was 10000 nM on Carbonic anhydrase 12, 7000 nM at Carbonic anhydrase 4, 2000 nM on Carbonic anhydrase 13 and 2500 nM at Carbonic anhydrase 1.

In the case of `COc1ccc(/C=N/NC(=O)C2CC(=O)N(c3cc(C)c(S(N)(=O)=O)c(C)c3)C2)cc1` (stereo not given), the Kd in [1] is 670 nM; on Carbonic anhydrase 7, 18000 nM; on Carbonic anhydrase 6, 14000 nM; at Carbonic anhydrase 2 it was 2000 nM; at Carbonic anhydrase 3, at least 200000 nM; at Carbonic anhydrase 9 it was 2000 nM. Besides, the Kd was determined as 18000 nM on Carbonic anhydrase 12, 2200 nM at Carbonic anhydrase 4, 21000 nM on Carbonic anhydrase 13 and 2000 nM on Carbonic anhydrase 1.

Turning to `COC(=O)C1CC(=O)N(c2c(Br)c(C)c(S(N)(=O)=O)c(C)c2Br)C1` (stereo not given), the Kd (in [1]; on Carbonic anhydrase 7; at Carbonic anhydrase 6; at Carbonic anhydrase 2; on Carbonic anhydrase 3; on Carbonic anhydrase 9) was at least 200000 nM throughout. The Kd at Carbonic anhydrase 12, at Carbonic anhydrase 4, on Carbonic anhydrase 13 and on Carbonic anhydrase 1 was at least 200000 nM each time.

In the case of `Cc1cc(N2CC(C(=O)N/N=C/c3ccc(Br)cc3)CC2=O)c(Cl)c(C)c1S(N)(=O)=O` (stereo not given), the Kd in assay [1] is 7.7 nM; on Carbonic anhydrase 7 it was 63 nM; at Carbonic anhydrase 6, 920 nM; at Carbonic anhydrase 2 it was 50 nM; at Carbonic anhydrase 3, at least 200000 nM; at Carbonic anhydrase 9, 200 nM. The Kd on Carbonic anhydrase 12 worked out at 1400 nM; on Carbonic anhydrase 4 it was 340 nM; on Carbonic anhydrase 13, 67 nM; on Carbonic anhydrase 1, 560 nM.

In the case of `Cc1cc(C)cc(NC(=O)C2CC(=O)N(c3ccccc3)C2)c1` (stereo not given), the Kd (in assay [1]; on Carbonic anhydrase 6; at Carbonic anhydrase 2; at Carbonic anhydrase 3; at Carbonic anhydrase 9; on Carbonic anhydrase 12) was at least 200000 nM throughout. The Kd at Carbonic anhydrase 4, on Carbonic anhydrase 13 and at Carbonic anhydrase 1 was at least 200000 nM in each case.

In the case of `Cc1cc(S(N)(=O)=O)c(C)cc1N1CC(C(=O)N/N=C/c2ccc([N+](=O)[O-])cc2)CC1=O` (stereo not given), the Kd in assay [1] is 28 nM; on Carbonic anhydrase 7 it was 1300 nM; at Carbonic anhydrase 6, 9900 nM; on Carbonic anhydrase 2, 2100 nM; on Carbonic anhydrase 3, at least 200000 nM; at Carbonic anhydrase 9 it was 1100 nM. For the same compound, the Kd worked out at 14000 nM at Carbonic anhydrase 12, 17000 nM on Carbonic anhydrase 4, 320 nM on Carbonic anhydrase 13 and 6200 nM at Carbonic anhydrase 1.

With `Cc1cc(C)n(C(=O)C2CC(=O)N(c3cc(C)c(S(N)(=O)=O)c(C)c3Cl)C2)n1` (stereo not given), the Kd in assay [1] was 13 nM; on Carbonic anhydrase 7 it was 20 nM; on Carbonic anhydrase 6 it was 3300 nM; on Carbonic anhydrase 2, 25 nM; on Carbonic anhydrase 3, at least 200000 nM; on Carbonic anhydrase 9, 140 nM. Also, the figures for the Kd on Carbonic anhydrase 12 and on Carbonic anhydrase 1 were 1000 nM and 250 nM, respectively.

In the case of `Cc1cc(N2CC(c3n[nH]c(=S)o3)CC2=O)c(Cl)c(C)c1S(N)(=O)=O` (stereo not given), the Kd is 250 nM in assay [1]; 130 nM on Carbonic anhydrase 7; 3300 nM at Carbonic anhydrase 6; 100 nM on Carbonic anhydrase 2; at least 200000 nM at Carbonic anhydrase 3; 67 nM at Carbonic anhydrase 9. For the same compound, the Kd was 100 nM at Carbonic anhydrase 13 and 830 nM at Carbonic anhydrase 1.

Regarding `COC(=O)C1CC(=O)N(c2cc(C)c(S(N)(=O)=O)c(C)c2Cl)C1` (stereo not given), the Kd in [1] is 25 nM; on Carbonic anhydrase 7, 13 nM; at Carbonic anhydrase 6 it was 4800 nM; at Carbonic anhydrase 2, 29 nM; on Carbonic anhydrase 3, at least 200000 nM; on Carbonic anhydrase 9, 100 nM. For the same compound, the Kd on Carbonic anhydrase 4 was found to be 1000 nM; on Carbonic anhydrase 13, 14 nM; at Carbonic anhydrase 1 it was 670 nM.

For `Cc1cc(NCC(CC(=O)O)c2n[nH]c(=S)n2-c2ccccc2)cc(C)c1S(N)(=O)=O` (stereo not given), the dissociation constant Kd in assay [1] was at least 200000 nM; on Carbonic anhydrase 7, at least 200000 nM; on Carbonic anhydrase 6, at least 200000 nM; at Carbonic anhydrase 2, 100000 nM; at Carbonic anhydrase 12, 50000 nM; on Carbonic anhydrase 4, at least 200000 nM. The Kd came out at 33000 nM at Carbonic anhydrase 13 and 100000 nM at Carbonic anhydrase 1.

As to `Cc1cc(NCC(CC(=O)O)c2n[nH]c(=S)n2-c2ccccc2)c(Cl)c(C)c1S(N)(=O)=O` (stereo not given), the Kd in assay [1] amounted to 10000 nM; at Carbonic anhydrase 7 it was 7700 nM; at Carbonic anhydrase 6 it was 10000 nM; on Carbonic anhydrase 2, 17000 nM; on Carbonic anhydrase 9, 1000 nM; on Carbonic anhydrase 12, 2500 nM. Further, the Kd on Carbonic anhydrase 4 came out at 10000 nM; at Carbonic anhydrase 13, 1400 nM; on Carbonic anhydrase 1 it was 40000 nM.

Turning to `COC(=O)C1CC(=O)N(c2cc(C)c(S(N)(=O)=O)c(C)c2)C1` (stereo not given), the Kd was at least 200000 nM in assay [1]; 3400 nM on Carbonic anhydrase 7; 50000 nM on Carbonic anhydrase 6; 2000 nM on Carbonic anhydrase 2; at least 200000 nM at Carbonic anhydrase 3; 3000 nM on Carbonic anhydrase 9. The Kd at Carbonic anhydrase 4 was 6700 nM; at Carbonic anhydrase 13, 2000 nM; at Carbonic anhydrase 1, 1500 nM.

For the compound `Cc1cc(N2CC(C(=O)NNC(=S)Nc3ccccc3)CC2=O)c(Cl)c(C)c1S(N)(=O)=O` (stereo not given), the Kd in assay [1] is 200 nM; on Carbonic anhydrase 7 it was 100 nM; on Carbonic anhydrase 6, 2200 nM; at Carbonic anhydrase 2 it was 32 nM; at Carbonic anhydrase 9, 100 nM; on Carbonic anhydrase 12, 360 nM. Moreover, the values for the Kd on Carbonic anhydrase 13 and at Carbonic anhydrase 1 were 14 nM and 360 nM, respectively.

`Cc1cc(C)n(NC(=O)C2CC(=O)N(c3cc(C)c(S(N)(=O)=O)c(C)c3Cl)C2)n1` (stereo not given): the Kd was 100 nM in assay [1]; 25 nM on Carbonic anhydrase 7; 3300 nM on Carbonic anhydrase 6; 20 nM on Carbonic anhydrase 2; 100 nM at Carbonic anhydrase 9; 2000 nM at Carbonic anhydrase 12. Also, the Kd on Carbonic anhydrase 13 worked out at 10 nM; at Carbonic anhydrase 1 it was 1100 nM.

Consider `Cc1cc(NC(=O)C2CC(=O)N(c3ccccc3)C2)cc(C)c1S(N)(=O)=O` (stereo not given), for which the Kd on Carbonic anhydrase 7 is 8300 nM; at Carbonic anhydrase 6 it was 45000 nM; at Carbonic anhydrase 3, at least 200000 nM; at Carbonic anhydrase 12 it was at least 200000 nM; on Carbonic anhydrase 4, 6800 nM; at Carbonic anhydrase 13, 3900 nM. Further, the Kd on Carbonic anhydrase 1 is 1600 nM.

On to `Cc1c(Br)c(N2CC(C(=O)N/N=C/c3ccc([N+](=O)[O-])cc3)CC2=O)c(Br)c(C)c1S(N)(=O)=O` (stereo not given), for which the Kd on Carbonic anhydrase 2, on Carbonic anhydrase 12, on Carbonic anhydrase 13 and on Carbonic anhydrase 1 was at least 200000 nM in each case.

On to `COc1ccc(/C=N/NC(=O)C2CC(=O)N(c3cc(C)c(S(N)(=O)=O)c(C)c3Cl)C2)cc1` (stereo not given), for which the Kd is 3.2 nM in assay [1]; 16 nM at Carbonic anhydrase 7; 590 nM on Carbonic anhydrase 6; 56 nM on Carbonic anhydrase 2; at least 200000 nM on Carbonic anhydrase 3; 77 nM on Carbonic anhydrase 9. Besides, the Kd at Carbonic anhydrase 4 was 180 nM; at Carbonic anhydrase 13 it was 50 nM; at Carbonic anhydrase 1 it was 710 nM.
